Assay results taken from the supplement of paper PMC10307832.

Columns and labels:
Assay in all cases: relative viability (nuclei count vs DMSO), 5 days (fraction); higher = more cells survive
[1] = compound: CN1C=C(C2=CC=CC=C21)/C=C\3/C4=C(C=CC=N4)NC3=O + CC1(C)CCC(c2ccc(Cl)cc2)=C(CN2CCN(c3ccc(C(=O)NS(=O)(=O)c4ccc(N[C@H](CCN5CCOCC5)CSc5ccccc5)c(S(=O)(=O)C(F)(F)F)c4)cc3)CC2)C1 [Navitoclax] (partner 0.5 µM)
Summary of the method: (§1)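 Relative viability divides the nuclei count in treated wells by that in vehicle wells. Lung cancer cell lines were seeded in 1536-well plates, dosed by pin tool the next day, and fixed and stained after 5 days in one step with final 0.05% Triton X-100, 1% formaldehyde and 1 ug/ml Hoechst. Dosing was a single drug or a fixed anchor-drug dose plus five library-drug doses (not always all listed) in √10 steps, and values are medians of duplicate plates imaged at 4×.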

[2] = compound: CC(=O)Nc1cccc(-n2c(=O)n(C3CC3)c(=O)c3c(Nc4ccc(I)cc4F)n(C)c(=O)c(C)c32)c1 [Trametinib] + C[C@@H](Oc1cc(-c2cnn(C3CCNCC3)c2)cnc1N)c1c(Cl)ccc(F)c1Cl [Crizotinib] (partner 1 µM)
Summary of the method: as §1

[3] = compound: CN1C=C(C2=CC=CC=C21)/C=C\3/C4=C(C=CC=N4)NC3=O + Nc1nc2[nH]cc(CCc3ccc(C(=O)N[C@@H](CCC(=O)O)C(=O)O)cc3)c2c(=O)[nH]1 [Pemetrexed] (partner 0.2 µM)
Summary of the method: as §1

[4] = compound: CN1C=C(C2=CC=CC=C21)/C=C\3/C4=C(C=CC=N4)NC3=O + NC(=O)Nc1cc(-c2cccc(F)c2)sc1C(=O)N[C@H]1CCCNC1 [AZD7762] (partner 0.2 µM)
Summary of the method: as §1

Cell Line | relative viability ([1]; first compound 0.02 µM) | relative viability ([1]; first compound 0.06325 µM) | relative viability ([1]; first compound 0.2 µM) | relative viability ([1]; first compound 0.6325 µM) | relative viability ([1]; first compound 2 µM) | relative viability ([2]; first compound 0.0025 µM) | relative viability ([2]; first compound 0.007906 µM) | relative viability ([2]; first compound 0.025 µM) | relative viability ([2]; first compound 0.07906 µM) | relative viability ([2]; first compound 0.25 µM) | relative viability ([3]; first compound 0.02 µM) | relative viability ([3]; first compound 0.06325 µM) | relative viability ([3]; first compound 0.2 µM) | relative viability ([3]; first compound 0.6325 µM) | relative viability ([3]; first compound 2 µM) | relative viability ([4]; first compound 0.02 µM) | relative viability ([4]; first compound 0.06325 µM) | relative viability ([4]; first compound 0.2 µM) | relative viability ([4]; first compound 0.6325 µM) | relative viability ([4]; first compound 2 µM)
LU99A | 0.86 | 0.849 | 0.857 | 0.865 | 0.79 | 0.554 | 0.489 | 0.473 | 0.368 | 0.214 | 0.156 | 0.182 | 0.176 | 0.173 | 0.186 | 0.372 | 0.435 | 0.345 | 0.331 | 0.377
LXF-289 | 0.962 | 0.908 | 0.97 | 1.01 | 1.01 | 0.738 | 0.711 | 0.608 | 0.531 | 0.353 | 0.925 | 0.913 | 0.928 | 0.881 | 0.974 | 1.14 | 1.16 | 0.975 | 1.21 | 1.1
NCI-H23 | 0.558 | 0.764 | – | 0.807 | 0.931 | 0.389 | 0.428 | 0.34 | 0.387 | 0.263 | 0.678 | 0.598 | 0.576 | 0.788 | 0.654 | 0.264 | 0.232 | 0.167 | 0.252 | 0.189
NCI-H322M | 1.31 | 1.3 | 1.12 | 1.12 | 1.29 | 0.943 | 0.986 | 0.686 | 0.697 | 1.04 | 0.606 | 0.575 | 0.598 | 0.673 | 0.641 | 0.58 | 0.488 | 0.509 | 0.592 | 0.617
NCI-H441 | 1.08 | – | 0.906 | 0.596 | 0.875 | 0.757 | 0.691 | 0.608 | 0.448 | 0.294 | 0.275 | 0.241 | 0.264 | 0.285 | 0.251 | 1.15 | 1.21 | 1.19 | 1.06 | 1.05
NCI-H460 | 1.27 | 1.21 | 1.39 | – | 1.43 | 0.857 | 0.552 | 0.476 | 0.289 | 0.0283 | 0.0583 | 0.0649 | 0.0603 | 0.0702 | 0.0616 | 0.627 | 0.576 | 0.263 | 0.677 | 0.574
NCI-H596 | 0.957 | 0.925 | 0.901 | 0.779 | 0.902 | 0.8 | 0.824 | 0.757 | 0.721 | 0.597 | 0.494 | 0.494 | 0.527 | 0.456 | 0.531 | 1 | 1.04 | 0.92 | 1 | 1.21
NCI-H647 | 0.767 | 0.983 | – | 0.919 | 0.935 | 0.961 | 1.04 | 0.746 | 0.671 | 0.572 | 0.122 | 0.173 | 0.153 | 0.167 | 0.175 | 0.348 | 0.418 | 0.0952 | 0.304 | 0.378
